Test results reported in the kinase profiling compilation of Christmann-Franck et al. (2016).
Several values for one entry are separate records, joined by “and”; a condition that tells them apart may be missing. Identical values can stand only once.

What was measured:
Experiment in all cases: KINOMEscan competition binding
Settings in all cases: compound 10.0 µM
CDK2 (human) = CDK2 (human) (UniProt P24941)
CDK3 (human) = CDK3 (human) (UniProt Q00526)
DAPK1 (human) = DAPK1 (human) (UniProt P53355)
MAP4K1 (human) = MAP4K1 (human) (UniProt Q92918)
MAP4K4 (human) = MAP4K4 (human) (UniProt O95819)
[1] = molecular target: TYK2 JH1 catalytic (human) (UniProt P29597)
TRPM6 (human) = TRPM6 (human) (UniProt Q9BX84)
TNK2 (human) = TNK2 (human) (UniProt Q07912)
PTK6 (human) = PTK6 (human) (UniProt Q13882)
[2] = tested on: FLT3 (human), P36888 [D835H]
CSNK1A1 (human) = CSNK1A1 (human) (UniProt P48729)
MYO3B (human) = MYO3B (human) (UniProt Q8WXR4)
CLK4 (human) = CLK4 (human) (UniProt Q9HAZ1)
PRKCI (human) = PRKCI (human) (UniProt P41743)
CAMK2B (human) = CAMK2B (human) (UniProt Q13554)
NEK1 (human) = NEK1 (human) (UniProt Q96PY6)
LATS1 (human) = LATS1 (human) (UniProt O95835)
RPS6KA6 KD1 (human) = RPS6KA6 KD1 (human) (UniProt Q9UK32)
TXK (human) = TXK (human) (UniProt P42681)
PRKACA (human) = PRKACA (human) (UniProt P17612)
WEE1 (human) = WEE1 (human) (UniProt P30291)
MAP2K3 (human) = MAP2K3 (human) (UniProt P46734)
CHUK (human) = CHUK (human) (UniProt O15111)
PHKG2 (human) = PHKG2 (human) (UniProt P15735)
PIK3C2B (human) = PIK3C2B (human) (UniProt O00750)
MYLK3 (human) = MYLK3 (human) (UniProt Q32MK0)
PAK3 (human) = PAK3 (human) (UniProt O75914)
SLK (human) = SLK (human) (UniProt Q9H2G2)
MYO3A (human) = MYO3A (human) (UniProt Q8NEV4)
[3] = tested on: RET (human), P07949 [M918T]
PI4KB (human) = PI4KB (human) (UniProt Q9UBF8)
EPHA8 (human) = EPHA8 (human) (UniProt P29322)
CSNK1G1 (human) = CSNK1G1 (human) (UniProt Q9HCP0)
PRKX (human) = PRKX (human) (UniProt P51817)
MAP3K2 (human) = MAP3K2 (human) (UniProt Q9Y2U5)
STK25 (human) = STK25 (human) (UniProt O00506)
INSR (human) = INSR (human) (UniProt P06213)
TTK (human) = TTK (human) (UniProt P33981)
ANKK1 (human) = ANKK1 (human) (UniProt Q8NFD2)
MERTK (human) = MERTK (human) (UniProt Q12866)

DAPK1 (human), sequence (P53355 whole entry, looked up): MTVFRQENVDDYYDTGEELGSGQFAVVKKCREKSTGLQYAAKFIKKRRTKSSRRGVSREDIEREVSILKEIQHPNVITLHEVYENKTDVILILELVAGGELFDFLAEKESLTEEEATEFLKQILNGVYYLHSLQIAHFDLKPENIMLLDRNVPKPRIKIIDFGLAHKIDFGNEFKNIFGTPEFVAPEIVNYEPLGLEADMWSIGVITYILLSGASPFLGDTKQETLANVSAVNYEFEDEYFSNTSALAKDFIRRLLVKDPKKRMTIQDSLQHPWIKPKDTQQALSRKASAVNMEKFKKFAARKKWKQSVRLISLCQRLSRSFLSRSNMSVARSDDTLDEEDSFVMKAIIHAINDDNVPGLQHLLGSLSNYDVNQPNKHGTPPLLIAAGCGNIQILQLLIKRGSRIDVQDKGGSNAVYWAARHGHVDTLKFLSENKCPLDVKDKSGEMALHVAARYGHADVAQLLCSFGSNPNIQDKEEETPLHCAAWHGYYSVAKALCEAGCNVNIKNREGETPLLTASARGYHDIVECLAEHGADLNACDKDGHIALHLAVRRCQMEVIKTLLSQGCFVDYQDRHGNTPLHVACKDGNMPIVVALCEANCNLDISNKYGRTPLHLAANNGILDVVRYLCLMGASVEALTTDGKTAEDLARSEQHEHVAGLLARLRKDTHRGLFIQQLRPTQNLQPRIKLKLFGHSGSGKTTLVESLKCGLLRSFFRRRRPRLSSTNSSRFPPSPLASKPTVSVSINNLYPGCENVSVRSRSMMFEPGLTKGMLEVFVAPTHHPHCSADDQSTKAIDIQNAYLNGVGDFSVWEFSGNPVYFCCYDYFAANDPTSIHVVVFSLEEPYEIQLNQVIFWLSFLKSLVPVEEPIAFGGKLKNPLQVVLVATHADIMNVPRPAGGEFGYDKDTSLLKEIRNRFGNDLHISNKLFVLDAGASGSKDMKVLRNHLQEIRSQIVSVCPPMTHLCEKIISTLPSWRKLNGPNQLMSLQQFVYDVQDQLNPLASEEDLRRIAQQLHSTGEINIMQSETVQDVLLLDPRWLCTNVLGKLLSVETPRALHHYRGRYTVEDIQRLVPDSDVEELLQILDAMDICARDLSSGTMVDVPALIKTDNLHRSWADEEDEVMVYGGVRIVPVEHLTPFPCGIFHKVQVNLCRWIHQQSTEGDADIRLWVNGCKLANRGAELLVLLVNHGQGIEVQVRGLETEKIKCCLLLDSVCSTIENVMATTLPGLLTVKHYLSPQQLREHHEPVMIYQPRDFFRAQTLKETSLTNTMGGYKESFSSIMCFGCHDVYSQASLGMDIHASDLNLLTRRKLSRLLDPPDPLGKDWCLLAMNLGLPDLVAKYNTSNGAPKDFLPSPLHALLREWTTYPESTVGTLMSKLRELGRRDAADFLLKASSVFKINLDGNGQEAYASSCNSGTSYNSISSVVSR
MYO3B (human), sequence (Q8WXR4 whole entry, looked up): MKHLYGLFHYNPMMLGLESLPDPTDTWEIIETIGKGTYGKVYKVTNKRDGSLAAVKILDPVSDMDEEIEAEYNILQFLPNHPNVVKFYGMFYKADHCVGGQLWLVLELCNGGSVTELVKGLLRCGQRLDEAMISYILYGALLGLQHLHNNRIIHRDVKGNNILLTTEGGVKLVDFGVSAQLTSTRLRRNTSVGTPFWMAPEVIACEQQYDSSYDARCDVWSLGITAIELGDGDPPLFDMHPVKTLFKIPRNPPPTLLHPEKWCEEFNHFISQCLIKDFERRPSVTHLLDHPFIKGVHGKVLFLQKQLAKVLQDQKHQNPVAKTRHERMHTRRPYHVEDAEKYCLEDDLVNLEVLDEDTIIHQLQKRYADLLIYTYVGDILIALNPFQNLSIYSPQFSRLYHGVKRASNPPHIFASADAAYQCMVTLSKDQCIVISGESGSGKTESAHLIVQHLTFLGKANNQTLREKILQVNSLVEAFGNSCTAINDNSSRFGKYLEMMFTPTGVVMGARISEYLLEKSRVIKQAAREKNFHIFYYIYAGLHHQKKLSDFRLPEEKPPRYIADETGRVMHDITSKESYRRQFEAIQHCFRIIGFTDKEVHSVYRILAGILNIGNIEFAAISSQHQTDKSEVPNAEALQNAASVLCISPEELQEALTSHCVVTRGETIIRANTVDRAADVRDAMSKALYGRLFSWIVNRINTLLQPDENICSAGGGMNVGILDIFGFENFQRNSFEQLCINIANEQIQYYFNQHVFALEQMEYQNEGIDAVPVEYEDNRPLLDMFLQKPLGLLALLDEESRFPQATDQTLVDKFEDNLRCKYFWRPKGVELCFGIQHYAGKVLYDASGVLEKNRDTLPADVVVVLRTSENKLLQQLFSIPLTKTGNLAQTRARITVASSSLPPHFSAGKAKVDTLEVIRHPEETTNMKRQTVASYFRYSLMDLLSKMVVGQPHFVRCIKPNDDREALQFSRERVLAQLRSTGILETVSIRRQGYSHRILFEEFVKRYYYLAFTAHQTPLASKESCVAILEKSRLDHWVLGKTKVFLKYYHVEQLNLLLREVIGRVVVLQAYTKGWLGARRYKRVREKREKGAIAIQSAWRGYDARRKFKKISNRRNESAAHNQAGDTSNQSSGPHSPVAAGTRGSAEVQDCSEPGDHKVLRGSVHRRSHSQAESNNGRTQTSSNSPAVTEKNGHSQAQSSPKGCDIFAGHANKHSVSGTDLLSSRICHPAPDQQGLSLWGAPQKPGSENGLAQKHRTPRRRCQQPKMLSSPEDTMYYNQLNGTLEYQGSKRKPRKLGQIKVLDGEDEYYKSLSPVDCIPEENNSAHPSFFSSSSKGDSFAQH
NEK1 (human), sequence (Q96PY6 whole entry, looked up): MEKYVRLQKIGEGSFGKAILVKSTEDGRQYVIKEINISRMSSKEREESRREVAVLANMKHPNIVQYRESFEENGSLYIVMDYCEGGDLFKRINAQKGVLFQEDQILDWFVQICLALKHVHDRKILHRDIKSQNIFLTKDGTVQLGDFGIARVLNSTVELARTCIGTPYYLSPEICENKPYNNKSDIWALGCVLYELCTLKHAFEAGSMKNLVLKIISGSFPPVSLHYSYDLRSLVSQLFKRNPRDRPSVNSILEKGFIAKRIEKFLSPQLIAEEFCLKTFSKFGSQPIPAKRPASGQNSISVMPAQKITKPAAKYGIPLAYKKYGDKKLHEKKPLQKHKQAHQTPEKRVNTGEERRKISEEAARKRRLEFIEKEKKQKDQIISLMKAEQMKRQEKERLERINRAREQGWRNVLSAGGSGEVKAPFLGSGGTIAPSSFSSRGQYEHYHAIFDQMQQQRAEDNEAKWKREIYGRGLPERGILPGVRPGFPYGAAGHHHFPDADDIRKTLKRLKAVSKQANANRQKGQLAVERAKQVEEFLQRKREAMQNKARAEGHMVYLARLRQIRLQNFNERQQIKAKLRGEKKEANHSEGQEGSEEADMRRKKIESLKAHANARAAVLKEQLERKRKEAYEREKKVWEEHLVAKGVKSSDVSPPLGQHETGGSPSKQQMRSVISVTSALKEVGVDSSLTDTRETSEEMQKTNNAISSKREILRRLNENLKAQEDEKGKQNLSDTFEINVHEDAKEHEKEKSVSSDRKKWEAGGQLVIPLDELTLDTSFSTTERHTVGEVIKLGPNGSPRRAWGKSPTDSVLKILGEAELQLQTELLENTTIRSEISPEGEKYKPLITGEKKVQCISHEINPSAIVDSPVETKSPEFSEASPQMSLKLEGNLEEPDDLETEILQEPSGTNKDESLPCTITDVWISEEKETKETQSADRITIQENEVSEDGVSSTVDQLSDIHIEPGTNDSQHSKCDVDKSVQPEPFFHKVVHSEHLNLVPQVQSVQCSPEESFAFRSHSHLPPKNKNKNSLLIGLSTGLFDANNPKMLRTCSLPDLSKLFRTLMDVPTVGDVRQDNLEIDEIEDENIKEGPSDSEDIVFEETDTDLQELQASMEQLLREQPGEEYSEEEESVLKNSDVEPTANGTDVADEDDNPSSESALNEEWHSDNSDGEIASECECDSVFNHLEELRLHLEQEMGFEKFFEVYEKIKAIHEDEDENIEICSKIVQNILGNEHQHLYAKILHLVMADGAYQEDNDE
MAP4K1 (human), sequence (Q92918 whole entry, looked up): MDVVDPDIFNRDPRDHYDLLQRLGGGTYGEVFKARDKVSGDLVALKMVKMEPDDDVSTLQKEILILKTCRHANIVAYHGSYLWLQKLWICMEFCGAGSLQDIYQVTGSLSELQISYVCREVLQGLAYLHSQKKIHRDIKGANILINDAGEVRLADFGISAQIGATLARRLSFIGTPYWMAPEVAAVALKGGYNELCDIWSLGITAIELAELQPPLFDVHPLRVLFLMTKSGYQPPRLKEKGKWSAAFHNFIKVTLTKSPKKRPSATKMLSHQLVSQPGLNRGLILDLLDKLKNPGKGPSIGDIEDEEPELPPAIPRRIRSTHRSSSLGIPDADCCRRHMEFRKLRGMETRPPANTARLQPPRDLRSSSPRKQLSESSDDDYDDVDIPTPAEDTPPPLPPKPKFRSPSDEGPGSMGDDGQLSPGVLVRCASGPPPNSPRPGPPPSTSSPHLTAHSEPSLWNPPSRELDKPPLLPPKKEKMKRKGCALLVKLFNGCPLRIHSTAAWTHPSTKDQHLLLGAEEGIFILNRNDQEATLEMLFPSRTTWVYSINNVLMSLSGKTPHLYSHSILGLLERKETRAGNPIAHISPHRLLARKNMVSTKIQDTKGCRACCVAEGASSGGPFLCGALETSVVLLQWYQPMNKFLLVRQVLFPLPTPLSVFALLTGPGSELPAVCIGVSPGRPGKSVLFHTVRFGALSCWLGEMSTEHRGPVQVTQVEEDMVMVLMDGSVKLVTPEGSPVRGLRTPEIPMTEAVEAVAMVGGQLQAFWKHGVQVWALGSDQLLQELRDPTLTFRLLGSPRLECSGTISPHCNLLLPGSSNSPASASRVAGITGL

O=C1NC(=O)/C(=C/c2ccc3nccc(-c4ccncc4)c3c2)S1
kinase still bound, per cent of control (CDK2 (human)): 76% | kinase still bound, per cent of control (CDK3 (human)): 87% | kinase still bound, per cent of control (DAPK1 (human)): 6.4% | kinase still bound, per cent of control (MAP4K1 (human)): 26% | kinase still bound, per cent of control (MAP4K4 (human)): 41% and 47% | kinase still bound, per cent of control [1]: 38% | kinase still bound, per cent of control (TRPM6 (human)): 97% | kinase still bound, per cent of control (TNK2 (human)): 100% | kinase still bound, per cent of control (PTK6 (human)): 87% | kinase still bound, per cent of control [2]: 31% | kinase still bound, per cent of control (CSNK1A1 (human)): 24% | kinase still bound, per cent of control (MYO3B (human)): 97% | kinase still bound, per cent of control (CLK4 (human)): 0.2% | kinase still bound, per cent of control (PRKCI (human)): 67% | kinase still bound, per cent of control (CAMK2B (human)): 9.6% | kinase still bound, per cent of control (NEK1 (human)): 47% | kinase still bound, per cent of control (LATS1 (human)): 80% | kinase still bound, per cent of control (RPS6KA6 KD1 (human)): 45% | kinase still bound, per cent of control (TXK (human)): 79% | kinase still bound, per cent of control (PRKACA (human)): 35% | kinase still bound, per cent of control (WEE1 (human)): 100% | kinase still bound, per cent of control (MAP2K3 (human)): 35% | kinase still bound, per cent of control (CHUK (human)): 44% | kinase still bound, per cent of control (PHKG2 (human)): 6% | kinase still bound, per cent of control (PIK3C2B (human)): 0.15% | kinase still bound, per cent of control (MYLK3 (human)): 6.2% | kinase still bound, per cent of control (PAK3 (human)): 20% | kinase still bound, per cent of control (SLK (human)): 0.3% | kinase still bound, per cent of control (MYO3A (human)): 85% | kinase still bound, per cent of control [3]: 93% | kinase still bound, per cent of control (PI4KB (human)): 0.4% | kinase still bound, per cent of control (EPHA8 (human)): 90% | kinase still bound, per cent of control (CSNK1G1 (human)): 20% | kinase still bound, per cent of control (PRKX (human)): 19% | kinase still bound, per cent of control (MAP3K2 (human)): 90% | kinase still bound, per cent of control (STK25 (human)): 75% | kinase still bound, per cent of control (INSR (human)): 77% | kinase still bound, per cent of control (TTK (human)): 19% | kinase still bound, per cent of control (ANKK1 (human)): 47% | kinase still bound, per cent of control (MERTK (human)): 14%

COc1ccc(N(C(=O)Oc2c(C)cccc2C)c2ccnc(Nc3ccc(N4CCN(C)CC4)cc3)n2)c(OC)c1
kinase still bound, per cent of control (CDK2 (human)): 65% | kinase still bound, per cent of control (CDK3 (human)): 100% | kinase still bound, per cent of control (DAPK1 (human)): 73% | kinase still bound, per cent of control (MAP4K1 (human)): 0.25% | kinase still bound, per cent of control (MAP4K4 (human)): 3.7% | kinase still bound, per cent of control [1]: 45% | kinase still bound, per cent of control (TRPM6 (human)): 100% | kinase still bound, per cent of control (TNK2 (human)): 0% | kinase still bound, per cent of control (PTK6 (human)): 0% | kinase still bound, per cent of control [2]: 3% | kinase still bound, per cent of control (CSNK1A1 (human)): 71% | kinase still bound, per cent of control (MYO3B (human)): 18% | kinase still bound, per cent of control (CLK4 (human)): 100% | kinase still bound, per cent of control (PRKCI (human)): 62% | kinase still bound, per cent of control (CAMK2B (human)): 98% | kinase still bound, per cent of control (NEK1 (human)): 76% | kinase still bound, per cent of control (LATS1 (human)): 78% | kinase still bound, per cent of control (RPS6KA6 KD1 (human)): 40% | kinase still bound, per cent of control (TXK (human)): 0.45% | kinase still bound, per cent of control (PRKACA (human)): 1.6% | kinase still bound, per cent of control (WEE1 (human)): 85% | kinase still bound, per cent of control (MAP2K3 (human)): 66% | kinase still bound, per cent of control (CHUK (human)): 92% | kinase still bound, per cent of control (PHKG2 (human)): 100% | kinase still bound, per cent of control (PIK3C2B (human)): 11% | kinase still bound, per cent of control (MYLK3 (human)): 100% | kinase still bound, per cent of control (PAK3 (human)): 4% | kinase still bound, per cent of control (SLK (human)): 0.1% | kinase still bound, per cent of control (MYO3A (human)): 69% | kinase still bound, per cent of control [3]: 0.1% | kinase still bound, per cent of control (PI4KB (human)): 100% | kinase still bound, per cent of control (EPHA8 (human)): 0.2% | kinase still bound, per cent of control (CSNK1G1 (human)): 95% | kinase still bound, per cent of control (PRKX (human)): 41% | kinase still bound, per cent of control (MAP3K2 (human)): 2.2% | kinase still bound, per cent of control (STK25 (human)): 61% | kinase still bound, per cent of control (INSR (human)): 100% | kinase still bound, per cent of control (TTK (human)): 42% | kinase still bound, per cent of control (ANKK1 (human)): 100% | kinase still bound, per cent of control (MERTK (human)): 20%

CCN1CCN(C(=O)Cc2ccc(Nc3ncc(F)c(Nc4ccc(C(=O)Nc5ccccc5Cl)cc4)n3)cc2)CC1
kinase still bound, per cent of control (CDK2 (human)): 80% | kinase still bound, per cent of control (CDK3 (human)): 92% | kinase still bound, per cent of control (DAPK1 (human)): 3.8% | kinase still bound, per cent of control (MAP4K1 (human)): 38% | kinase still bound, per cent of control (MAP4K4 (human)): 69% | kinase still bound, per cent of control [1]: 22% | kinase still bound, per cent of control (TRPM6 (human)): 96% | kinase still bound, per cent of control (TNK2 (human)): 10% | kinase still bound, per cent of control (PTK6 (human)): 16% | kinase still bound, per cent of control [2]: 0.6% | kinase still bound, per cent of control (CSNK1A1 (human)): 96% | kinase still bound, per cent of control (MYO3B (human)): 100% | kinase still bound, per cent of control (CLK4 (human)): 28% | kinase still bound, per cent of control (PRKCI (human)): 77% | kinase still bound, per cent of control (CAMK2B (human)): 72% | kinase still bound, per cent of control (NEK1 (human)): 17% | kinase still bound, per cent of control (LATS1 (human)): 100% | kinase still bound, per cent of control (RPS6KA6 KD1 (human)): 37% | kinase still bound, per cent of control (TXK (human)): 2.2% | kinase still bound, per cent of control (PRKACA (human)): 42% | kinase still bound, per cent of control (WEE1 (human)): 31% | kinase still bound, per cent of control (MAP2K3 (human)): 57% | kinase still bound, per cent of control (CHUK (human)): 84% | kinase still bound, per cent of control (PHKG2 (human)): 42% | kinase still bound, per cent of control (PIK3C2B (human)): 93% | kinase still bound, per cent of control (MYLK3 (human)): 100% | kinase still bound, per cent of control (PAK3 (human)): 12% | kinase still bound, per cent of control (SLK (human)): 0.2% | kinase still bound, per cent of control (MYO3A (human)): 100% | kinase still bound, per cent of control [3]: 0.55% | kinase still bound, per cent of control (PI4KB (human)): 100% | kinase still bound, per cent of control (EPHA8 (human)): 63% | kinase still bound, per cent of control (CSNK1G1 (human)): 100% | kinase still bound, per cent of control (PRKX (human)): 76% | kinase still bound, per cent of control (MAP3K2 (human)): 31% | kinase still bound, per cent of control (STK25 (human)): 35% | kinase still bound, per cent of control (INSR (human)): 78% | kinase still bound, per cent of control (TTK (human)): 18% | kinase still bound, per cent of control (ANKK1 (human)): 36% | kinase still bound, per cent of control (MERTK (human)): 2%
